Test results published in patent publication US9452177B2, “Vitamin D compounds and methods for reducing ocular hypertension (OHT)” (Wisconsin Alumni Research Foundation, priority 2008, dated 2016).
“Also recorded” adds a separate entry of the source.

Legend:
[1] = system: eyes of ocular normotensive cynomolgus monkeys; assay: Intraocular pressure (IOP) by Goldmann applanation tonometry after 5 twice-daily unilateral topical treatments; format: in vivo, cynomolgus monkeys (Macaca fascicularis); details: Example 1; for rank order of ocular hypotensive effect: 5 uniocular topical treatments at the same dose; for IOP after the 5th treatment / IOP prior to the 5th treatment compared with baseline: AGR 5 μg n=4, 2MD 6 μg n=8; for IOP prior to the 5th treatment compared with baseline: both treated and control eye
Procedure: Ocular normotensive adult cynomolgus monkeys (Macaca fascicularis), of either sex, weighing 3-7 kg were anesthetized with i.m. ketamine HCl (3-25 mg/kg, supplemented with 1-10 mg/kg) for IOP and topical drop administration. All monkeys were free of any ocular abnormalities according to slit lamp biomicroscopy at the time measurements were taken. The monkeys were provided by the Primate Center at the University of Wisconsin-Madison. All experiments were done in accordance with the ARVO Statement on the Use of Animals in Ophthalmic and Vision Research.
(§1) The intraocular pressure (IOP) was determined with a “minified” Goldmann applanation tonometer [Kaufman, 1980] using HALF AND HALF™ creamer solution (Borden) as the tear film indicator [Croft, 1997] with the monkey lying prone in a head holder and the eyes positioned 4 to 8 cm above the heart. All monkeys were examined by slit-lamp before the first IOP measurement in each protocol. For each eye, two or three IOP measurements were averaged as a baseline.
Under ketamine anesthesia (KETAJECT™, Phoenix Pharmaceutical, St Joseph, Mo. (3-25 mg/kg i.m., supplemented with 1-10 mg/kg i.m. as needed) baseline IOP was determined, usually between 7:30 and 9 am (2 readings, 5 minutes apart; if IOP baseline measurements were not within 2-3 mm Hg of each other, a 3rd reading was taken 5 min later). Baseline IOP was at least 15 mmHg if possible. A baseline blood sample was taken from the femoral artery or vein, or sometimes the brachial vein (1-2 ml). This was allowed to clot and then spun down (3000 rpm for 10 min, Damon/IEC NH-SII centrifuge) and the serum removed and frozen at −20 C for no more than 1 week. Baseline systolic, diastolic and mean arterial pressure as well as heart rate were recorded with the Dinamap monitor from a cuff placed around the arm or the leg.
After baseline measurements, the monkey was place supine with the eye pointing up and the eyelid held open. A 5 μl drop of test material or vehicle was delivered to opposite eyes. The eyelid was held open for at least 30 sec and the eye was maintained in the upward position for an additional 30 sec. The monkey was then returned to its cage and allowed to wake up. In the afternoon, at least 6 hours after the morning treatment, another treatment was administered. On the second day, dosing was repeated in the am and pm.
(§2) On the 3th day, prior to the 5th treatment, baseline IOP, biomicroscopy and MAP were determined. Preliminary studies indicated an effect was observed after these treatments but not after a single treatment. Following the 5th dose, IOP was measured at 1, 2, 3, 4, 5, 6, 7, 8, 12 (if possible), 24, and sometimes 48 hr. Biomicroscopy was done at 1, 3, 6, 24 and sometimes 48 hr. MAP on day 3 (some protocols) was determined at 1, 2, 3, 4, 5, 6, 7, 8, 24 and sometimes 48 hr if possible. Blood samples after the 5th treatment were collected at 6, 24, and sometimes 48 hr. For some protocols, IOP was also measured prior to each treatment; MAP was measured prior to the morning treatment; blood was collected prior to the afternoon treatment. Subsequent screening protocols will not include the MAP and blood collections and will only measure IOP at baseline and prior to and for 1-6 hr after the 5th treatment.
Adult cynomolgus monkeys (Macaca fascicularis) of either sex were anesthetized with intramuscular ketamine HCl (10 mg/kg initial, 5 mg/kg supplemental). Baseline pretreatment IOP was determined by Goldmann applanation tonometry [Kaufman, 1980] with […] used as a tear film indicator [Croft, 1997]. Two baseline IOP measurements were taken 5 minutes apart. […]

[2] = Ocular inflammation by slit-lamp biomicroscopy; format: in vivo, cynomolgus monkeys (Macaca fascicularis); details: Example 1; 5 topical treatments, 5 μg (2MD 6 μg)
Procedure: as §1, §2
Baseline pretreatment IOP was determined by Goldmann applanation tonometry [Kaufman, 1980] with […] used as a tear film indicator [Croft, 1997]. Two baseline IOP measurements were taken 5 minutes apart. Monkeys were then treated topically with 5 μl of 1,25-dihydroxyvitamin D3 (1,25-(OH)2D3) (0.1-5 μg) to one eye and vehicle (propylene glycol) to the opposite eye twice a day for 5 treatments total. […] IOP was also measured prior to the afternoon treatment. On the third day, IOP was measured prior to the morning treatment. Following the fifth treatment, IOP was measured hourly for 8 hours and, in some cases, also at 12, 24, and 48 hours. […]

SMILES: C=C1[C@H](O)CC(=C/C=C2\CCC[C@]3(C)[C@@H]([C@@H](C)CCCC(C)(C)O)CC[C@@H]23)C[C@H]1O [2MD, 2-methylene-19-nor-(20S)-1α,25-dihydroxyvitamin D3]
- rank order of ocular hypotensive effect [1]: 1,25(OH)2D3>2MD>AGR
- IOP after the 5th treatment [1]: gradually decreased over the next 8 hours similar to the diurnal decline seen with vehicle alone; also recorded: small drug effect at 6 and 7 hours
- IOP prior to the 5th treatment compared with baseline [1]: no different than at baseline
- ocular inflammation [2]: no ocular inflammation at any time-point

SMILES: CC(CCCC(C)(C)O)C1CCC2C(=CC=C3CC(O)C(=CCCO)C(O)C3)CCCC21C (stereo not drawn) [AGR, 2-(3′-hydroxypropylidene)-19-nor-1α,25-dihydroxyvitamin D3]
- IOP in treated eye compared with control eye ([1]; 5 μg (2MD 6 μg) in 5 μl propylene glycol one eye, vehicle opposite eye): no difference between the eyes at any time-point
- rank order of ocular hypotensive effect [1]: 1,25(OH)2D3>2MD>AGR
- IOP in the control (vehicle, contralateral) eye after the 5th treatment ([1]; AGR 5 μg in opposite eye): no change in IOP in the control eye
- IOP after the 5th treatment [1]: not significantly decreased in the treated eye except at the 3 hr time point
- IOP prior to the 5th treatment compared with baseline [1]: no different than at baseline
- ocular inflammation [2]: no ocular inflammation at any time-point
